What was measured:
Stability in human serum = type: in vitro ADME
Description: TABLE 1 Pharmacokinetic parameters of PROTAC 2. | column: Stability (hours) ^b / h‐serum

[1] = system: HGADFN167 Lmna^G608G/G608G fibroblasts; test: RT-qPCR of senescence markers in human progeroid cells; type: cell-based; details: HGADFN167, 5 µM, 20 days
Description: FIGURE 6 (A) Representative cropped immunoblots and progerin quantification in human Lmna^G608G/G608G fibroblasts. MW, molecular weight (in kDa) markers. […] (B) PROTAC 2 increases cell proliferation (upper panels) and decreases the number of misshapen nuclei (lower panels). White arrows highlight selected misshapen nuclei. (C) PROTAC 2 decreases senescence‐associated β‐galactosidase (SA‐βgal) activity, interleukin (IL) 6, p16 and p21 senescent markers. Bar graphs show mean±sem of 2 (SA‐βgal and p21) or 3 (IL‐6 and p16) independent experiments performed in triplicate. (D) PROTAC 2 decreases phosphorylated histone 2AX (pH2AX) and increases trimethylated histone 3 (H3K9Me3) levels. (E) PROTAC 2 increases the oxygen consumption rate (OCR), ATP production and the number of healthy mitochondria in human progeroid cells. Bar graphs show mean±sem of 2 independent experiments performed in duplicate. […] Data were analysed using one‐way ANOVA followed by Dunnett's post–hoc test vs vehicle (panel A) or vs G608G cells (panels B‐E). ^*, p < 0.05; ^**, p < 0.01; ^***, p < 0.001; ^****, p < 0.0001. […]
ferrocyanide, 0.6 mL 5 M NaCl, 0.2 mL 0.2 M MgCl2, (all from Sigma Aldrich) and 6.2 mL of deionized water in a total volume of 20 mL] in the dark in a humidified incubator at 37 °C for 24 h without CO2 supply. Then, an equal volume of the supernatant of each well was transferred to a new 96-well plate for fluorescence measurement. The resultant production of fluorescein was measured using a FluoStar Optima instrument (BMG Labtech) with an excitation of 485 nm and emission at 535 nm. […]
Total RNA was extracted by RNAeasy Mini Kit (Qiagen) according to the manufacturer instructions and subsequently quantified using the NanoPhotometer N60 (Implen). […] Quantitative real-time PCR was run in the QuantStudio 7FLEX (Applied Biosystems) system and results were normalized according to β-actin quantification.
Specific `in-house´ designed primers (see sequence below) were purchased from Metabion. The threshold cycle (Ct) was determined, and the relative gene expression was […]

For CC1(C)Oc2cc3oc(=O)ccc3cc2C[C@@H]1OC(=O)CCCCCNc1cccc2c1C(=O)N(C1CCC(=O)NC1=O)C2=O (stereo partly shown) [compound 2], the “Stability (hours) h‐serum” value (Stability in human serum) was over 24 h, the “IL‐6 senescent marker” value [1] was “significantly reduced” and the p16 senescent marker [1] was “significantly reduced”. The p21 senescent marker [1] was “significantly reduced”.

— publication PMC13252604, “First Generation Proteolysis Targeting Chimeras (PROTACs) for the Treatment of Progeria” (Advanced Science, 2026)
